Where two headings read alike, the source gives them in different places.
Key:
wheat = assay: Test A preemergence; type: in vivo, Triticum aestivum; conditions: Triticum aestivum, pre-emergence, 240 h, read-out: Plant response rating, Wheat; for plant injury at 125 g/ha: 125 g ai/ha; for plant injury at 500 g/ha: 500 g ai/ha
Summary of the method: (§1)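 Seeds in loam–sand blend received a directed preemergence soil spray of compound in non-phytotoxic solvent with surfactant; postemergence plants (2–10 cm, one- to two-leaf stage) were sprayed with the same formulation. After 10 days in greenhouse, injury was rated visually versus untreated controls, 0 (no effect) to 100 (complete control).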

corn [1] = assay: Test A preemergence; type: in vivo, Zea mays; conditions: Zea mays, pre-emergence, 240 h; for Corn plant response rating (crop injury, 0 = no effect, 100 = complete kill) at 125 g/ha: 125 g ai/ha; for Corn plant response rating (crop injury, 0 = no effect, 100 = complete kill) at 500 g/ha: 500 g ai/ha
Summary of the method: as §1

corn [2] = assay: Test A postemergence; type: in vivo, Zea mays; conditions: Zea mays, post-emergence, 240 h, postemergence, 10 days, 0 to 100 scale (0 no effect, 100 complete control); for plant injury at 125 g/ha: 125 g ai/ha, read-out: Corn plant response rating; for Corn plant response rating (crop injury, 0 = no effect, 100 = complete kill) at 500 g/ha: 500 g ai/ha, visual injury
Summary of the method: as §1

foxtail, giant [3] = assay: Test A preemergence; type: in vivo, Setaria faberi; conditions: Setaria faberi, pre-emergence, 240 h, read-out: Plant response rating, Foxtail, Giant; for pest or weed control at 125 g/ha: 125 g ai/ha; for pest or weed control at 500 g/ha: 500 g ai/ha
Summary of the method: as §1

goosegrass [4] = assay: Test A preemergence; type: in vivo, Eleusine indica; conditions: Eleusine indica, pre-emergence, 240 h, read-out: Plant response rating, Goosegrass; for pest or weed control at 125 g/ha: 125 g ai/ha; for pest or weed control at 500 g/ha: 500 g ai/ha
Summary of the method: as §1

horseweed = assay: Test A postemergence; type: in vivo, Erigeron canadensis; conditions: Erigeron canadensis, post-emergence, 240 h, postemergence, 10 days, 0 to 100 scale (0 no effect, 100 complete control); for pest or weed control at 125 g/ha: 125 g ai/ha, read-out: Horseweed plant response rating; for pest or weed control at 500 g/ha: 500 g ai/ha, visual injury, read-out: Plant response rating, Horseweed
Summary of the method: as §1

blackgrass = assay: Test A postemergence; type: in vivo, Alopecurus myosuroides; conditions: Alopecurus myosuroides, post-emergence, 240 h; for pest or weed control at 125 g/ha: 125 g ai/ha, read-out: Blackgrass plant response rating; for pest or weed control at 500 g/ha: 500 g ai/ha, read-out: Plant response rating, Blackgrass
Summary of the method: as §1

ryegrass, Italian = assay: Test A preemergence; type: in vivo, Lolium multiflorum; conditions: Lolium multiflorum, pre-emergence, 240 h, read-out: Plant response rating, Ryegrass, Italian; for pest or weed control at 125 g/ha: 125 g ai/ha; for pest or weed control at 500 g/ha: 500 g ai/ha
Summary of the method: as §1

foxtail, giant [5] = assay: Test A postemergence; type: in vivo, Setaria faberi; conditions: Setaria faberi, post-emergence, 240 h, postemergence, 10 days, 0 to 100 scale (0 no effect, 100 complete control); for pest or weed control at 125 g/ha: 125 g ai/ha, read-out: Foxtail, Giant plant response rating; for pest or weed control at 500 g/ha: 500 g ai/ha, visual injury, read-out: Plant response rating, Foxtail, Giant
Summary of the method: as §1

barnyardgrass = assay: Test B flooded paddy test; type: in vivo, Echinochloa crus-galli; conditions: Echinochloa crus-galli, 312 h, 250 g ai/ha, Flood, 13 days, 0 to 100 scale (0 no effect, 100 complete control); read-out: Plant response rating, Barnyardgrass
Summary of the method: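 Visual scores from 0 (no effect) to 100 (complete kill) were assigned 13 days after treatment by comparison with controls. Seedlings had been treated at two leaves by adding compound to floodwater standing 3 cm deep, kept at that level in the greenhouse.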

pigweed, palmer = assay: Test A postemergence; type: in vivo, Amaranthus palmeri; conditions: Amaranthus palmeri, post-emergence, 240 h, postemergence, 10 days, 0 to 100 scale (0 no effect, 100 complete control); for pest or weed control at 125 g/ha: 125 g ai/ha, read-out: Pigweed, Palmer plant response rating; for pest or weed control at 500 g/ha: 500 g ai/ha, visual injury, read-out: Plant response rating, Pigweed, Palmer
Summary of the method: as §1

ragweed = assay: Test A preemergence; type: in vivo, Ambrosia artemisiifolia; conditions: Ambrosia artemisiifolia, pre-emergence, 240 h, read-out: Plant response rating, Ragweed; for pest or weed control at 125 g/ha: 125 g ai/ha; for pest or weed control at 500 g/ha: 500 g ai/ha
Summary of the method: as §1

goosegrass [6] = assay: Test A postemergence; type: in vivo, Eleusine indica; conditions: Eleusine indica, post-emergence, 240 h, postemergence, 10 days, 0 to 100 scale (0 no effect, 100 complete control); for pest or weed control at 125 g/ha: 125 g ai/ha, read-out: Goosegrass plant response rating; for pest or weed control at 500 g/ha: 500 g ai/ha, visual injury, read-out: Plant response rating, Goosegrass
Summary of the method: as §1

[7] = visual injury after 10 days, 0 to 100 scale, 0 is no effect, 100 is complete control
[8] = postemergence, 10 days, 0 to 100 scale (0 no effect, 100 complete control)
[9] = postemergence, 10 days, visual injury, 0 to 100 scale (0 no effect, 100 complete control)
[10] = 0 to 100 scale (0 no effect, 100 complete control), 10 days

| Structure (SMILES) | plant injury at 125 g/ha (wheat; [7]) [%] | Corn plant response rating (crop injury, 0 = no effect, 100 = complete kill) at 125 g/ha (corn [1]; [7]) [%] | plant injury at 125 g/ha (corn [2]) [%] | Corn plant response rating (crop injury, 0 = no effect, 100 = complete kill) at 500 g/ha (corn [2]) [%] | pest or weed control at 125 g/ha (foxtail, giant [3]; [7]) [%] | pest or weed control at 125 g/ha (goosegrass [4]; [7]) [%] | pest or weed control at 125 g/ha (horseweed) [%] | pest or weed control at 500 g/ha (horseweed) [%] | pest or weed control at 125 g/ha (blackgrass; [8]) [%] | pest or weed control at 500 g/ha (blackgrass; [9]) [%] | pest or weed control at 125 g/ha (ryegrass, Italian; [7]) [%] | pest or weed control at 125 g/ha (foxtail, giant [5]) [%] | pest or weed control at 500 g/ha (foxtail, giant [5]) [%] | pest or weed control at 250 g/ha (barnyardgrass) [%] | pest or weed control at 125 g/ha (pigweed, palmer) [%] | pest or weed control at 500 g/ha (pigweed, palmer) [%] | pest or weed control at 125 g/ha (ragweed; [7]) [%] | pest or weed control at 125 g/ha (goosegrass [6]) [%] | pest or weed control at 500 g/ha (goosegrass [6]) [%] | plant injury at 500 g/ha (wheat; [10]) [%] | also measured |
| --- | --- | --- | --- | --- | --- | --- | --- | --- | --- | --- | --- | --- | --- | --- | --- | --- | --- | --- | --- | --- | --- |
| Cc1cccc2c1O[C@@H](C)CN2C(=O)c1cccc(-n2cnn(C)c2=O)c1 [Compound 117, 4-[3-[[(2S)-2,3-Dihydro-2,8-dimethyl-4H-1,4-benzoxazin-4-yl]carbonyl]phenyl]-2,4-dihydro-2-methyl-3H-1,2,4-triazol-3-one] | 0 | 0 | 0 | 50 | 60 | 50 | 0 | 10 | 50 | 90 | 40 | 20 | 70 | 0 | 10 | 30 | 0 | 30 | 70 |  | plant injury at 500 g/ha (wheat; [7]): 20%; Corn plant response rating (crop injury, 0 = no effect, 100 = complete kill) at 500 g/ha (corn [1]; [7]): 10%; pest or weed control at 500 g/ha (foxtail, giant [3]; [7]): 90%; pest or weed control at 500 g/ha (goosegrass [4]; [7]): 100%; pest or weed control at 500 g/ha (ryegrass, Italian; [7]): 100%; pest or weed control at 500 g/ha (ragweed; [7]): 40% |
| CCc1ncn(-c2ccc(OC)c(C(=O)N3C[C@H](C)Oc4c(Cl)cccc43)c2)n1 [Compound 88, [(2S)-8-Chloro-2,3-dihydro-2-methyl-4H-1,4-benzoxazin-4-yl][5-(3-ethyl-1H-1,2,4-triazol-1-yl)-2-methoxyphenyl]methanone] | 20 | 40 | 90 | 90 | 100 | 100 | 40 | 90 | 60 | 90 | 100 | 90 | 90 | 45 | 90 | 90 | 60 | 100 | 100 | 40 | Corn plant response rating (crop injury, 0 = no effect, 100 = complete kill) at 500 g/ha (corn [1]; [10]): 40%; pest or weed control at 500 g/ha (foxtail, giant [3]; [10]): 100%; pest or weed control at 500 g/ha (goosegrass [4]; [10]): 100%; pest or weed control at 500 g/ha (ryegrass, Italian; [10]): 100%; pest or weed control at 500 g/ha (ragweed; [10]): 100% |
| Cc1cccc2c1O[C@@H](C)CN2C(=O)c1cccc(-n2cnc(C3CCCC3)n2)c1 [Compound 80, [3-(3-Cyclopentyl-1H-1,2,4-triazol-1-yl)phenyl][(2S)-2,3-dihydro-2,8-dimethyl-4H-1,4-benzoxazin-4-yl]methanone] | 0 | 0 | 10 | 20 | 20 | 90 | 0 | 0 | 0 |  | 90 | 10 | 50 | 0 | 30 | 70 | 0 | 10 | 30 | 10 | Corn plant response rating (crop injury, 0 = no effect, 100 = complete kill) at 500 g/ha (corn [1]; [10]): 20%; pest or weed control at 500 g/ha (foxtail, giant [3]; [10]): 80%; pest or weed control at 500 g/ha (goosegrass [4]; [10]): 100%; pest or weed control at 500 g/ha (blackgrass; Postemergence, 0 to 100 scale): 40%; pest or weed control at 500 g/ha (ryegrass, Italian; [10]): 100%; pest or weed control at 500 g/ha (ragweed; [10]): 0% |
